# Laboratory results taken from patent US10870684B2, “Disintegrin variants and pharmaceutical uses thereof” (National Cheng Kung University, priority 2014, dated 2020).
# System: platelet aggregation that is mediated by αIIbβ3
# Assay: Inhibition of ADP-induced platelet aggregation in platelet-rich plasma
# Assay type: cell-based
# Settings: PRP
# Experimental: Disintegrin (Rho) variants were also tested for their ability to inhibit platelet aggregation that is mediated by αIIbβ3. Venous blood (9 parts) samples from healthy donors who had not received any medication for at least two weeks were collected in 3.8% sodium citrate (1 part). Blood samples were centrifuged at 150×g for 10 min to obtain platelet-rich plasma (PRP) and allowed to stand for 5 min, and PRP was collected. The platelet-poor plasma (PPP) was prepared from the remaining blood by centrifuging at 2000×g for 25 min. The PPP platelet count was measured on a hematology analyzer and diluted to 250,000 platelets/μl. A solution of 190 μl of PRP and 10 μl of either Rho or PBS buffer were incubated for 5 min in a Hema Tracer 601 aggregometer at 37° C. Ten microliters of 200 μM adenosine diphosphate (ADP) were further added to monitor the response of platelet aggregation by light transmission.
substance,measurement,value
"rhodostomin [Rho wild-type, reference compound]",IC50,83.2 nM
